US12528814B2, “Bifunctional degraders of interleukin-1 receptor-associated kinases and therapeutic use thereof” (NURIX THERAPEUTICS, INC., priority 2020, dated 2026)
Read-outs that look alike come from different tables or passages of the source.

Legend:
IRAK4 [1] = target: T1, IRAK4 (Homo sapiens (Human), UniProt Q9NWZ3); assay: IRAK4 Degradation HiBiT Assay; conditions: HiBiT-tagged Jurkat cells, 4 hrs; for Dmax: Jurkat; for DC50: read-out: Cellular IRAK4 HiBiT: DC50
Target sequence in this assay (Q9NWZ3 whole entry): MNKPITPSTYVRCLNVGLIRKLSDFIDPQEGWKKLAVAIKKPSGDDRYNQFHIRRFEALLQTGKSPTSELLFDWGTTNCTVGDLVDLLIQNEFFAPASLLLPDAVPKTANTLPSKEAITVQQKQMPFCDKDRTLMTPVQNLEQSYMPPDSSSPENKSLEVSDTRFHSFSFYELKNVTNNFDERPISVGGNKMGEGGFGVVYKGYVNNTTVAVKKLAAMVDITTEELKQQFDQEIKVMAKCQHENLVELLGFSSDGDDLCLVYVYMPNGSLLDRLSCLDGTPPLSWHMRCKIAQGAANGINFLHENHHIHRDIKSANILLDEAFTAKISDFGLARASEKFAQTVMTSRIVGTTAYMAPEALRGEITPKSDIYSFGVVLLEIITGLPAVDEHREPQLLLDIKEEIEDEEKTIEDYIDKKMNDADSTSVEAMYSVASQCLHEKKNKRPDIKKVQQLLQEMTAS

IRAK4 [2] = target: T1, IRAK4; assay: IRAK4 Biochemical HTRF Kinase Assay; conditions: read-out: IRAK4 HTRF biochemical: IC50
Experimental: IRAK4 Biochemical HTRF Kinase Assay
The binding capacities of certain bifunctional compounds of Formula (I) were determined using the CisBio HTRF KinEASE STK S1 Kit (#62ST1PEB, contains 5× Kinase buffer, 1× Detection Buffer, anti-phospho-serine/threonine-cryptate, Streptavidin-XL665, and STK-S1), which measures the phosphorylation of a biotinylated peptide substrate by IRAK4, according to the manufacturer's protocol. […] 2 μl of a reaction solution containing 5 μM STK-S1, 10 mM ATP, and 10 mM MgCl2 were added to each well to a final volume of 10 μl. Assay controls include wells containing kinase with no compound (DMSO only) and wells containing no kinase and no compound (DMSO only). The reactions were allowed to proceed at ambient temperature for 90 minutes. […] The plates were incubated for 60 minutes at ambient temperature and then read on an Envision Multilabel Reader (PerkinElmer). […] For IC50 determination, the compounds were tested at sixteen concentrations in duplicate and curve-fitting was performed by non-linear regression analysis using GraphPad Priam.
Target sequence in this assay (Q9NWZ3 whole entry, species assumed): as the sequence (Q9NWZ3 whole entry) above

[3] = read-out: Cellular IRAK4 HiBiT: Dmax, Table 5, multiple runs
[4] = read-out: Cellular IRAK4 HiBiT: Dmax, Table 4

SMILES | Dmax (IRAK4 [1]; [3]) | DC50 (IRAK4 [1]; Table 5, multiple runs) | IC50 (IRAK4 [2]; Table 5, multiple runs) | Dmax (IRAK4 [1]; [4]) | DC50 (IRAK4 [1]; Table 4) | IC50 (IRAK4 [2]; Table 4)
CC(C)Nc1cc(-c2ccc3cc(C#N)cnn23)ncc1-c1nnc(N2CCN(C(=O)C3CCN(CC4CCN(c5ccc6c(=O)n(C7CCC(=O)NC7=O)ccc6c5)CC4)CC3)CC2)s1 (centres unmarked) [Example 21, 7-(5-(5-(4-(1-((1-(2-(2,6-dioxopiperidin-3-yl)-1-oxo-1,2-dihydroisoquinolin-6-yl)piperidin-4-yl)methyl)piperidine-4-carbonyl)piperazin-1-yl)-1,3,4-thiadiazol-2-yl)-4-(isopropylamino)pyridin-2-yl)pyrrolo[1,2-b]pyridazine-3-carbonitrile] | 101% | 251 nM | 0.5 nM | 103% | 251 nM | 0.5 nM
CNc1cc(-c2ccc3cc(C#N)cnn23)ncc1-c1nnc(N2CCN(C3CCN(Cc4ccc(C(=O)NC5CCC(=O)NC5=O)cc4)CC3)CC2)s1 (centres unmarked) [Example 145, 4-((4-(4-(5-(6-(3-cyanopyrrolo[1,2-b]pyridazin-7-yl)-4-(methylamino)pyridin-3-yl)-1,3,4-thiadiazol-2-yl)piperazin-1-yl)piperidin-1-yl)methyl)-N-(2,6-dioxopiperidin-3-yl)benzamide] | 49% | 109 nM | 1.8 nM | – | – | –
CNc1cc(-c2ccc3cc(C#N)cnn23)ncc1-c1nnc(C23CCC(NC(=O)CCC(=O)N[C@H](C(=O)N4C[C@H](O)C[C@H]4C(=O)N[C@@H](C)c4ccc(-c5scnc5C)cc4)C(C)(C)C)(CC2)CC3)s1 [Example 128, N1-(4-(5-(6-(3-cyanopyrrolo[1,2-b]pyridazin-7-yl)-4-(methylamino)pyridin-3-yl)-1,3,4-thiadiazol-2-yl)bicyclo[2.2.2]octan-1-yl)-N4—((S)-1-((2S,4R)-4-hydroxy-2-(((S)-1-(4-(4-methylthiazol-5-yl)phenyl)ethyl)carbamoyl)pyrrolidin-1-yl)-3,3-dimethyl-1-oxobutan-2-yl)succinamide] | 139% | 432 nM | 1.7 nM | – | – | –
Cc1ncsc1-c1ccc(CNC(=O)[C@@H]2C[C@@H](O)CN2C(=O)[C@@H](NC(=O)C2(F)CC2)C(C)(C)C)c(OCCCCCCCCCC(=O)N2CCN(c3nnc(-c4cnc(-c5ccc6cc(C#N)cnn56)cc4NC(C)C)s3)CC2)c1 [Example 44, (2S,4R)—N-(2-((10-(4-(5-(6-(3-cyanopyrrolo[1,2-b]pyridazin-7-yl)-4-(isopropylamino)pyridin-3-yl)-1,3,4-thiadiazol-2-yl)piperazin-1-yl)-10-oxodecyl)oxy)-4-(4-methylthiazol-5-yl)benzyl)-1-((S)-2-(1-fluorocyclopropane-1-carboxamido)-3,3-dimethylbutanoyl)-4-hydroxypyrrolidine-2-carboxamide] | – | > 9980 nM | 702 nM | 33% | > 10000 nM | 702 nM
Cc1ncsc1-c1ccc([C@H](C)NC(=O)[C@@H]2C[C@@H](O)CN2C(=O)[C@@H](NC(=O)CCCCCC(=O)N2CCN(c3nnc(-c4cnc(-c5ccc6cc(C#N)cnn56)cc4NC(C)C)s3)CC2)C(C)(C)C)cc1 [Example 37, (2S,4R)-1-((S)-2-(7-(4-(5-(6-(3-cyanopyrrolo[1,2-b]pyridazin-7-yl)-4-(isopropylamino)pyridin-3-yl)-1,3,4-thiadiazol-2-yl)piperazin-1-yl)-7-oxoheptanamido)-3,3-dimethylbutanoyl)-4-hydroxy-N—((S)-1-(4-(4-methylthiazol-5-yl)phenyl)ethyl)pyrrolidine-2-carboxamide] | 98% | 220 nM | 6 nM | 98% | 240 nM | 6 nM
Cc1ncsc1-c1ccc(CNC(=O)[C@@H]2C[C@@H](O)CN2C(=O)[C@@H](NC(=O)C2(F)CC2)C(C)(C)C)c(OCC(=O)N2CCC(CN3CCN(c4nnc(-c5cnc(-c6ccc7cc(C#N)cnn67)cc5NC(C)C)s4)CC3)CC2)c1 [Example 84, (2S,4R)—N-(2-(2-(4-((4-(5-(6-(3-cyanopyrrolo[1,2-b]pyridazin-7-yl)-4-(isopropylamino)pyridin-3-yl)-1,3,4-thiadiazol-2-yl)piperazin-1-yl)methyl)piperidin-1-yl)-2-oxoethoxy)-4-(4-methylthiazol-5-yl)benzyl)-1-((S)-2-(1-fluorocyclopropane-1-carboxamido)-3,3-dimethylbutanoyl)-4-hydroxypyrrolidine-2-carboxamide] | 115% | 247 nM | 5.5 nM | – | – | –
CC(C)Nc1cc(-c2ccc3cc(C#N)cnn23)ncc1-c1nnc(N2CCN(CC3CCN(c4ccc5c(=O)n(C6CCC(=O)NC6=O)ccc5c4)CC3)CC2)s1 (centres unmarked) [Example 72, 7-(5-(5-(4-((1-(2-(2,6-dioxopiperidin-3-yl)-1-oxo-1,2-dihydroisoquinolin-6-yl)piperidin-4-yl)methyl)piperazin-1-yl)-1,3,4-thiadiazol-2-yl)-4-(isopropylamino)pyridin-2-yl)pyrrolo[1,2-b]pyridazine-3-carbonitrile] | 94% | 189 nM | 3.1 nM | – | – | –
Cc1ncsc1-c1ccc(CNC(=O)[C@@H]2C[C@@H](O)CN2C(=O)[C@@H](NC(=O)C2(F)CC2)C(C)(C)C)c(OCCCC(=O)N2CCN(c3nnc(-c4cnc(-c5ccc6cc(C#N)cnn56)cc4NC(C)C)s3)CC2)c1 [Example 79, (2S,4R)—N-(2-(4-(4-(5-(6-(3-cyanopyrrolo[1,2-b]pyridazin-7-yl)-4-(isopropylamino)pyridin-3-yl)-1,3,4-thiadiazol-2-yl)piperazin-1-yl)-4-oxobutoxy)-4-(4-methylthiazol-5-yl)benzyl)-1-((S)-2-(1-fluorocyclopropane-1-carboxamido)-3,3-dimethylbutanoyl)-4-hydroxypyrrolidine-2-carboxamide] | 113% | 137 nM | 9.8 nM | – | – | –
Cc1ncsc1-c1ccc(CNC(=O)[C@@H]2C[C@@H](O)CN2C(=O)C(NC(=O)[C@H]2CC[C@H](CN3CCN(c4nnc(-c5cnc(-c6ccc7cc(C#N)cnn67)cc5NC(C)C)s4)CC3)CC2)C(C)(C)C)cc1 (stereo partly drawn) [Example 46, (2S,4R)-1-((S)-2-((1r,4S)-4-((4-(5-(6-(3-cyanopyrrolo[1,2-b]pyridazin-7-yl)-4-(isopropylamino)pyridin-3-yl)-1,3,4-thiadiazol-2-yl)piperazin-1-yl)methyl)cyclohexane-1-carboxamido)-3,3-dimethylbutanoyl)-4-hydroxy-N-(4-(4-methylthiazol-5-yl)benzyl)pyrrolidine-2-carboxamide] | 73% | 1240 nM | 15.4 nM | 78% | 1570 nM | 15.4 nM

Second part, the compound after the results:

Dmax (IRAK4 [1]; [3]) | DC50 (IRAK4 [1]; Table 5, multiple runs) | IC50 (IRAK4 [2]; Table 5, multiple runs) | Dmax (IRAK4 [1]; [4]) | DC50 (IRAK4 [1]; Table 4) | IC50 (IRAK4 [2]; Table 4) | SMILES
77% | 49.9 nM | 1.5 nM | – | – | – | CNc1cc(-c2ccc3cc(C#N)cnn23)ncc1-c1nnc(C23CCC(NC(=O)CN4CCC5(CC4)CN(c4ccc6c(c4)C(=O)N(C4CCC(=O)NC4=O)C6=O)C5)(CC2)CC3)s1 (centres unmarked) [Example 104, N-(4-(5-(6-(3-cyanopyrrolo[1,2-b]pyridazin-7-yl)-4-(methylamino)pyridin-3-yl)-1,3,4-thiadiazol-2-yl)bicyclo[2.2.2]octan-1-yl)-2-(2-(2-(2,6-dioxopiperidin-3-yl)-1,3-dioxoisoindolin-5-yl)-2,7-diazaspiro[3.5]nonan-7-yl)acetamide]
78% | 44.7 nM | 2.2 nM | – | – | – | CNc1cc(-c2ccc3cc(C#N)cnn23)ncc1-c1nnc([C@H]2CC[C@@H](NC(=O)CCOCCNc3ccc4c(c3)C(=O)N(C3CCC(=O)NC3=O)C4=O)CC2)s1 (some centres unmarked) [Example 115, N-((1s,4s)-4-(5-(6-(3-cyanopyrrolo[1,2-b]pyridazin-7-yl)-4-(methylamino)pyridin-3-yl)-1,3,4-thiadiazol-2-yl)cyclohexyl)-3-(2-((2-(2,6-dioxopiperidin-3-yl)-1,3-dioxoisoindolin-5-yl)amino)ethoxy)propanamide]
125% | 217 nM | 2.9 nM | 125% | 218 nM | 2.9 nM | CC(C)Nc1cc(-c2ccc3cc(C#N)cnn23)ncc1-c1nnc(N2CCN(C(=O)CCCCCNc3cccc4c3C(=O)N(C3CCC(=O)NC3=O)C4=O)CC2)s1 (centres unmarked) [Example 9, 7-(5-(5-(4-(6-((2-(2,6-dioxopiperidin-3-yl)-1,3-dioxoisoindolin-4-yl)amino)hexanoyl)piperazin-1-yl)-1,3,4-thiadiazol-2-yl)-4-(isopropylamino)pyridin-2-yl)pyrrolo[1,2-b]pyridazine-3-carbonitrile]
101% | 14.3 nM | 0.8 nM | 82% | 47.5 nM | 1.79 nM | CNc1cc(-c2ccc3cc(C#N)cnn23)ncc1-c1nnc([C@H]2CC[C@H](NC(=O)CCCCCNc3ccc4c(c3)C(=O)N(C3CCC(=O)NC3=O)C4=O)CC2)s1 (some centres unmarked) [Example 68, N-((1r,4r)-4-(5-(6-(3-cyanopyrrolo[1,2-b]pyridazin-7-yl)-4-(methylamino)pyridin-3-yl)-1,3,4-thiadiazol-2-yl)cyclohexyl)-6-((2-(2,6-dioxopiperidin-3-yl)-1,3-dioxoisoindolin-5-yl)amino)hexanamide]
